Measurements from patent publication US20180235916A1, “ENHANCING BETA CELL REPLICATION AND/OR SURVIVAL” (priority 2015, published 2018).
In brackets after ≈: the same amount, converted by molar mass. Entries after “also recorded” stand apart in the source; their conditions may differ. Read-outs that look alike come from different tables or passages of the source.

How the values were obtained:
[1] = long-term oral GABA, human clinical trials, epileptic seizures and cerebrovascular disorders; cited from earlier work
INS-1 cells = assay: INS-1 cell proliferation, 3H-thymidine incorporation assay; format: cell-based; conditions: for INS-1 cell proliferation, single agents of TSPO experiment: each agent alone, midazolam or clonazepam 100 nM; for effect on GABA-stimulated INS-1 cell proliferation: low doses of PAM with GABA, FIG. 9 panels D-G
Protocol: (§1) 1. ^3H-thymidine incorporation assay: INS-1 cells at 1×10^5/well were treated in triplicate with indicated concentrations of individual compounds and cultured in 10% FCS RPMI164 medium in the presence of 0.3 μCi/well of 3H-thymidine for 48 hours (an optimal time period). The cells were harvested and the levels of ^3H-thymidine uptake in individual wells were measured by beta-counter.
as §1, with “0.3 uCi/well” for “0.3 μCi/well”, “of ^3H-thymidine” for “of 3H-thymidine”
INS-1 cells at 1×10^5/well were treated in triplicate with indicated concentrations of individual compounds and cultured in 10% FCS RPMI164 medium in the presence of ^3H-thymidine (0.3 μCi/well) for 48 hours (an optimal time period). The levels of ^3H-thymidine uptake in individual wells were measured by a scintillation counter.

[2] = system: adult human β-cells in islet xenoplants; conditions: oral GABA treatment; from less than 1% without; cited from earlier work
human islets = format: cell-based
Protocol: FIG. 2. Human islets (50/well) were incubated in media with, or without, alprazolam (30 ng/ml) for 4 days in the presence of ^3H thymidine. Data shown are the average rate of proliferation relative to that of cultures with media alone (designated as 1). N=two independent studies with triplicate cultures. Data was very similar in both studies.
N=two independent studies

[3] = Solubility of test compounds (stock solutions)
EAE = conditions: stressed rats; cited from earlier work
[4] = target: mitochondrial translocator protein (TSPO) (Homo sapiens, UniProt P30536); conditions: cited from earlier work
mitochondrial translocator protein (TSPO), sequence (P30536 whole entry): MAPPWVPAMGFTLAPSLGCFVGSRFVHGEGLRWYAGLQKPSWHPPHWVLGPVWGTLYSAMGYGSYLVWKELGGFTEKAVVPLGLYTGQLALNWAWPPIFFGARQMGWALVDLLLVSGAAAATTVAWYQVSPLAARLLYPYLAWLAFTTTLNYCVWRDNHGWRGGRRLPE

[5] = persons receiving the drug therapeutically; cited from earlier work
[6] = patients with T1D or T2D, poor glucose control, after 8 weeks of treatment, vs placebo; cited from earlier work
[7] = GABA 0.3 mM, PK11195 1 uM, 48 hrs
[8] = PAM 100 nM with GABA 0.3 mM, 48 hrs
[9] = PAM alone at 10 or/and 100 nM, FIG. 9 panel B
[10] = PAM at 10^−7 or 3×10^−8 M with GABA
[11] = compound alone at 10^−7-10^−8 M

## NCCCC(=O)O [GABA, gamma-aminobutyric acid]
[1]
  adverse effects: no adverse effects
  clinical benefit: no clinical benefit
INS-1 cells; 0.01 mM GABA alone, FIG. 9 panels C-G
  INS-1 cell proliferation: did not stimulate INS-1 proliferation
INS-1 cells; GABA alone at 0.03-0.01 mM
  INS-1 cell proliferation: failed to induce INS-1 cell proliferation; also recorded: did not significantly stimulate INS-1 cell proliferation
INS-1 cells; GABA alone at 0.03-0.3 mM, FIG. 9 panels C-G
  INS-1 cell proliferation: stimulated INS-1 cell proliferation
INS-1 cells; GABA alone at 1-0.1 mM
  INS-1 cell proliferation: stimulated INS-1 cell proliferation
INS-1 cells; [7]
  INS-1 cell proliferation, single agents of TSPO experiment: induced INS-1 cell proliferation
[2]
  replicating adult human β-cells in islet xenoplants: 2-3%
Human islets; 0.03 mM GABA alone, 4 days, FIG. 3
  human islet cell proliferation: did not significantly enhance human islet cell proliferation
Human islets; 0.03 mM GABA alone, FIG. 12
  human islet cell proliferation: did not significantly enhance human islet cell proliferation
Human islets; GABA alone at 0.3-3 mM, FIG. 12
  human islet cell proliferation: significantly enhanced human islet cell proliferation
Human islets; similar to 0.03 mM GABA + 100 nM alprazolam, FIG. 12
  level of GABA alone required to achieve a similar level of proliferation: 0.3 mM
Human islets; similar to 0.03 mM GABA + alprazolam 30 ng/ml, FIG. 3
  level of GABA alone required to achieve a similar level of proliferation: 0.3 mM

## CCC(C)N(C)C(=O)c1cc2ccccc2c(-c2ccccc2Cl)n1 (centres unmarked) [PK11195]
INS-1 cells; PK11195 1 uM, GABA 0.3 mM, PAM 100 nM, 48 hrs, FIG. 9 panel H
  effect of TSPO inhibitor on GABA + midazolam or clonazepam enhanced INS-1 cell proliferation: not affected by PK11195; also recorded: did not affect the ability of GABA and the tested benzodiazepines to enhance INS-1 cell replication
INS-1 cells; [7]
  INS-1 cell proliferation, single agents of TSPO experiment: but not clonazepam or PK11195 induced INS-1 cell proliferation

## Cc1ncc2n1-c1ccc(Cl)cc1C(c1ccccc1F)=NC2 [midazolam]
[3]; water
  solubility: 6.25 mM (≈ 2040 µg/mL)
INS-1 cells; [8]
  INS-1 cell proliferation: enhanced cell proliferation
INS-1 cells; [9]
  INS-1 cell proliferation: significantly stimulated proliferation of INS-1 cells
INS-1 cells; [10]
  effect on GABA-induced INS-1 cell proliferation: enhanced GABA-induced INS-1 cell proliferation
INS-1 cells; PAM at 10^−7 or 3×10^−8 M with GABA at 0.03-0.01 mM
  INS-1 cell proliferation: significantly enhanced INS-1 cell proliferation
INS-1 cells; compound alone at 10^−5 M
  toxicity against INS-1 cells: slight toxicity
INS-1 cells; compound alone at 10^−7-3×10^−8 M, FIG. 4B
  INS-1 cell proliferation: significantly enhanced the proliferation of INS cells
INS-1 cells; [11]
  INS-1 cell proliferation: significantly enhanced INS-1 cell proliferation
INS-1 cells; [7]
  INS-1 cell proliferation, single agents of TSPO experiment: induced INS-1 cell proliferation
INS-1 cells
  effect on GABA-stimulated INS-1 cell proliferation: enhanced GABA-stimulated INS-1 cell proliferation

## O=C1CN=C(c2ccccc2Cl)c2cc([N+](=O)[O-])ccc2N1 [clonazepam]
INS-1 cells; [8]
  INS-1 cell proliferation: enhanced cell proliferation
INS-1 cells; [10]
  effect on GABA-induced INS-1 cell proliferation: significantly enhanced GABA-stimulated INS-1 cell proliferation
INS-1 cells; compound alone at 10^−4-10^−9 M, 48 hours
  INS-1 cell proliferation: did not significantly change the proliferation of INS-1 cells
INS-1 cells; [7]
  INS-1 cell proliferation, single agents of TSPO experiment: but not clonazepam or PK11195 induced INS-1 cell proliferation
INS-1 cells
  effect on GABA-stimulated INS-1 cell proliferation: enhanced GABA-stimulated INS-1 cell proliferation

## Cc1cc(NC(=O)/C(C#N)=C(\O)C2CC2)ccc1C(F)(F)F [AP325]
[3]; in DMSO
  soluble in DMSO: 50 mM
INS-1 cells; AP325 at 10^−7-10^−8 M with GABA, FIG. 7
  effect on GABA-induced INS-1 cell proliferation: significantly enhanced GABA-induced INS-1 cell proliferation
INS-1 cells; compound alone at 10^−4-10^−5 M, FIG. 6
  INS-1 cell proliferation (toxicity at high dose): significantly inhibited INS-1 cell proliferation
INS-1 cells; compound alone at 10^−6-10^−10, FIG. 6
  INS-1 cell proliferation: did not increase significantly the proliferation of INS-1 cells
INS-1 cells; [11]
  INS-1 cell proliferation: slightly increased the proliferation of INS-1 cells
INS-1 cells; compound at 3×10^−7-10^−8 M together with 0.03 mM GABA
  INS-1 cell proliferation: significantly promoted INS-1 cell proliferation
INS-1 cells; compound at 10^−6 M, data not shown
  INS-1 cell proliferation: did not significantly change the proliferation of INS-1 cells
INS-1 cells; compound at 10^−7 together with 0.01 mM GABA
  INS-1 cell proliferation: significantly stimulated INS-1 cell proliferation

## Cc1nnc2n1-c1ccc(Cl)cc1C(c1ccccc1)=NC2 [alprazolam]
EAE
  EAE and inflammation in the spinal cords: inhibited EAE and inflammation in the spinal cords
[4]
  binding to TSPO: does not bind to TSPO
[5]
  concentration in the serum: 10 to 100 ng/mL
[6]
  HbA1c levels: significantly reduced
INS-1 cells; 0.01 mM GABA in the presence of 30 or 100 nM alprazolam, FIG. 9 panel C
  INS-1 cell proliferation: significantly increased INS-1 cell proliferation
INS-1 cells; [9]
  INS-1 cell proliferation: significantly stimulated proliferation of INS-1 cells
INS-1 cells; alprazolam at high concentration of GABA (0.1 or 0.3 mM)
  ability to enhance GABA's pro-mitotic effects on INS-1 cells: had less ability to enhance GABA's pro-mitotic effects
Human islets; 0.03 mM GABA together with 100 nM alprazolam, FIG. 12
  human islet cell proliferation: significantly enhanced human islet cell proliferation
Human islets; 0.03 mM GABA together with alprazolam 30 ng/ml, 4 days, FIG. 3
  human islet cell proliferation enhanced: 138%
Human islets; alprazolam 30 ng/ml alone, no added GABA, 4 days, FIG. 2
  human islet cell proliferation promoted compared to cultures with no alprazolam: about 123%
Human islets; co-treatment 100 nM alprazolam and GABA, FIG. 12
  human islet cell proliferation relative to the corresponding GABA (alone) dose: significantly increased human islet cell proliferation
Human islets; dose range of alprazolam alone, low concentrations, FIG. 10
  human islet cell proliferation: promoted human islet cell proliferation
